{"source": "paper PMC12391994", "about": "“Synthesis of a fac-Tricarbonylrhenium(I) Complex with Pyrithione, Its Physicochemical Characterization, and Assessment of Biological Effects” (ACS Omega, 2025)", "key": {"[1]": {"conditions": "pH 7.4, 25.0 °C", "experimental": "The concentration of the compound was determined by UV–vis spectrophotometry. For calibration, stock solutions of the compound were used with known concentrations dissolved in 100% DMSO, 75% DMSO, and 50% (v/v) DMSO/buffered aqueous solutions."}, "[2]": {"target": "T1, cathepsin B (endopeptidase activity) (Homo sapiens, UniProt P07858)", "T1 construct": "made in house; host or cells: E. coli", "experiment": "Determination of inhibition constants, cathepsin B endopeptidase activity", "format": "biochemical", "conditions": "substrate Z-RR-AMC", "method": "Human recombinant cathepsin B was expressed in E. coli, recombinant cathepsin V was expressed in Pichia pastoris, and human recombinant cathepsin L was expressed in E. coli, as reported. − For the determination of cathepsin B endopeptidase and exopeptidase activities, 100 mM phosphate buffer (pH 6.0) and 60 mM acetate buffer (pH 5.0) were used, respectively, and for the determination of cathepsin V and L activities, 100 mM acetate buffer (pH 5.5) was used. All buffers contained 0.1% PEG 8000 (Sigma-Aldrich, St. Louis, MO), 5 mM cysteine, and 1.5 mM EDTA. Prior to the assay, the enzymes were activated in the assay buffer for 5 min at 37 °C.\nInhibition constants were calculated from the reaction velocities measured at three substrate concentrations (the substrate Z-Arg-Arg-AMC at concentrations of 60, 180, and 360 μM and the substrate Abz-Gly-Ile-Val-Arg-Ala-Lys(Dnp)-OH at concentrations of 1, 3, and 6 μM to assess cathepsin B endopeptidase and exopeptidase activity, respectively) in the presence of seven concentrations of the inhibitor (0, 20, 40, 60, 80, 100, and 200 μM). […] Formation of fluorescent degradation products was monitored as described above. […]"}}, "note": "Several values for one entry are separate records, joined by “and”; a condition that tells them apart may be missing. Equal values may be shown once."}
{"smiles": "N#Cc1ccccc1.[C-]#[O+].[C-]#[O+].[C-]#[O+].[O-]n1ccccc1=S.[Re+]", "note": "[complex 4, fac-[Re(CO)3(pth)(benzonitrile)]]", "values": [{"measurement": "aqueous solubility S7.4", "setting": "[1]", "value": "350 ± 10", "unit": "µM"}, {"measurement": "mode of inhibition, cathepsin B endopeptidase activity", "setting": "[2]", "value": "uncompetitive"}, {"measurement": "Ki′ (dissociation of enzyme–substrate–inhibitor complex), endopeptidase activity", "setting": "[2]; uncompetitive inhibition", "value": "17.02 ± 1.59 μM and 17.0 ± 1.6 ^c μM"}]}
